Results reported in patent US9216999B2, “Substituted pyrrolo[2,3-h][1,6]naphthyridines and compositions thereof as JAK inhibitors” (priority 2011, dated 2015).
Read-outs that look alike come from different tables or passages of the source.

How the values were obtained:
Assay type in all cases: biochemical
Tyk2 = Tyk2 (Homo sapiens (Human), UniProt P29597); experiment: Enzyme assay (Assay Example^a 1), Tyk2; conditions: ATP 100 μM
JAK1 = JAK1 (Homo sapiens (Human), UniProt P23458); experiment: Enzyme assay (Assay Example^a 1), JAK1; conditions: ATP 100 μM
JAK2 = JAK2 (Homo sapiens (Human), UniProt O60674); experiment: Enzyme assay (Assay Example^a 1), JAK2; conditions: ATP 100 μM
JAK3 = JAK3 (Homo sapiens (Human), UniProt P52333); experiment: Enzyme assay (Assay Example^a 1), JAK3
Chain of JAK3 (P52333 whole entry): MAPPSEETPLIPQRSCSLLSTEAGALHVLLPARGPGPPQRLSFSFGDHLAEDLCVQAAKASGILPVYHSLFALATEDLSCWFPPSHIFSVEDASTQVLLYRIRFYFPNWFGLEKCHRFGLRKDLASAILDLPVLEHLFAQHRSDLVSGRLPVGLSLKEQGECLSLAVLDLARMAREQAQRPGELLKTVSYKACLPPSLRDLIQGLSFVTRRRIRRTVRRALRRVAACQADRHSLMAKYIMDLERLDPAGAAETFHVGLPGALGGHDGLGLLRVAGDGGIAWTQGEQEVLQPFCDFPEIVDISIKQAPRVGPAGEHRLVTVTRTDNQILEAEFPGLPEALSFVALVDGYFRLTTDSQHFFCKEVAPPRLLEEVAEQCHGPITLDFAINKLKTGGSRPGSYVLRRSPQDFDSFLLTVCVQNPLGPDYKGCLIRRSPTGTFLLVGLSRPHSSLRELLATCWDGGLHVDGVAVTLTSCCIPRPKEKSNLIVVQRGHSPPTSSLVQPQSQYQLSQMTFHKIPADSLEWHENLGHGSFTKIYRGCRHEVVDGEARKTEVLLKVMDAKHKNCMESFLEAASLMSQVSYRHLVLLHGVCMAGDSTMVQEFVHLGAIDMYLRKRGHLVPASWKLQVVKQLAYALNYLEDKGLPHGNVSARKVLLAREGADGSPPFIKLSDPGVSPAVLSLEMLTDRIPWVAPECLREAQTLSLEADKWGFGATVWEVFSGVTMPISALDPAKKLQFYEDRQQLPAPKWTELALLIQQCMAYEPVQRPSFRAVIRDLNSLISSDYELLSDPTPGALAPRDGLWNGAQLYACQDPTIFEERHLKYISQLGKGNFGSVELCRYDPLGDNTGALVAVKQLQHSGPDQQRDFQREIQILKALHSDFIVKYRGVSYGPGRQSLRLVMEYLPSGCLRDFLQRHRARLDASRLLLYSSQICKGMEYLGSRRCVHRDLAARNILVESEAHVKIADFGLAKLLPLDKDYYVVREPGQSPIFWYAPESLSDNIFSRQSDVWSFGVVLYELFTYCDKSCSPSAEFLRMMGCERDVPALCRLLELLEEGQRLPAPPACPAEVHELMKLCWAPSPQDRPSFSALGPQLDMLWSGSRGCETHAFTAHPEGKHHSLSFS

Chain of Tyk2 (P29597 whole entry): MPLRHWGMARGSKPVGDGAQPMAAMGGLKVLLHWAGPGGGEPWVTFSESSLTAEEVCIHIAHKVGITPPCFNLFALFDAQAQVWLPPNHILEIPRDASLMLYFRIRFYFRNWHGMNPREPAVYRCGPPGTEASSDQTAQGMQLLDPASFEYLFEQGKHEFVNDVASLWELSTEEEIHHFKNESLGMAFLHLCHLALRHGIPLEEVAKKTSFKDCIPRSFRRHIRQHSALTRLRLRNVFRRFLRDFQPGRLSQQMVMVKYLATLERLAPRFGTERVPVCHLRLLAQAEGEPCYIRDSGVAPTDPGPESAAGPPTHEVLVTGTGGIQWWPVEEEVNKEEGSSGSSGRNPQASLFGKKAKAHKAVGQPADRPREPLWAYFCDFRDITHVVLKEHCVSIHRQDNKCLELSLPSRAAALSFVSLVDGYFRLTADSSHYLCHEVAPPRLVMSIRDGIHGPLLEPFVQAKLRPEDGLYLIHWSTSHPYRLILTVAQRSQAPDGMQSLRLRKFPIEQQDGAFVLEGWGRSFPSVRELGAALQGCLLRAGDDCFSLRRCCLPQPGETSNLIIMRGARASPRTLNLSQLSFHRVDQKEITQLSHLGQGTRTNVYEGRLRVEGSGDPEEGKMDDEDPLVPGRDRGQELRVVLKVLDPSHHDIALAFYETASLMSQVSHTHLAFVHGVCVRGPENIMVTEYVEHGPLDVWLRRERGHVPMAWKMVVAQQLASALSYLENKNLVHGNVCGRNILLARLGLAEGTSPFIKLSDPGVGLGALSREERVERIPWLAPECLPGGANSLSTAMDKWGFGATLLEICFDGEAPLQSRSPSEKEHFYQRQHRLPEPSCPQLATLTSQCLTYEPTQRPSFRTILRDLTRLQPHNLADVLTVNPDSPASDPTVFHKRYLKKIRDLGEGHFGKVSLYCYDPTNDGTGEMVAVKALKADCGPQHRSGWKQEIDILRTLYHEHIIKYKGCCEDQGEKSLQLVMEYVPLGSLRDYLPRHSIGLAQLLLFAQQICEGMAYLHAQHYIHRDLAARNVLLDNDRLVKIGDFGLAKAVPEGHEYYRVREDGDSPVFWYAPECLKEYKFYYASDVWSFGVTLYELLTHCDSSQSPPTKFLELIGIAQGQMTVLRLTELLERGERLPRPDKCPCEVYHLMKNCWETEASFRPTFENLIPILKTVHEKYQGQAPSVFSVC

IC50 (Tyk2; Table^a 154) [µM]	IC50 (JAK1; Table^a 154) [µM]	IC50 (JAK2; Table^a 154) [µM]	IC50 (JAK3; ATP 100 μM, Table^a 154) [µM]	SMILES	IC50 (Tyk2) [µM]	IC50 (JAK1) [µM]	IC50 (JAK2) [µM]	IC50 (JAK3; ATP 100 μM) [µM]	IC50 (JAK3) [µM]
0.31	0.01	0.034	0.41	Clc1cnccc1CN1CCC(c2nnn3cnc4[nH]ccc4c23)CC1 [compound 163, 1-{1-[(3-chloropyridin-4-yl)methyl]piperidin-4-yl}-7H-pyrrolo[3,2-e][1,2,3]triazolo[1,5-c]pyrimidine]	–	–	–	–	–
–	–	–	–	CC(C)(C)NC[C@H]1CC[C@H](c2nnn3cnc4[nH]ccc4c23)CC1 [compound 332, N-{[trans-4-(7H-pyrrolo[3,2-e][1,2,3]triazolo[1,5-c]pyrimidin-1-yl)cyclohexyl]methyl}-2-methylpropan-2-amine]	0.49	0.012	0.045	> 1	–
–	–	–	–	Fc1ccc(NC[C@H]2CC[C@H](c3nnn4cnc5[nH]ccc5c34)CC2)cc1C(F)(F)F [compound 251, N-{[trans-4-(7H-pyrrolo[3,2-e][1,2,3]triazolo[1,5-c]pyrimidin-1-yl)cyclohexyl]methyl}-4-fluoro-3-(trifluoromethyl)aniline]	> 1	0.031	0.2	> 1	–
0.0055	0.0053	0.041	0.28	c1ccc(CNC[C@H]2CC[C@H](c3nnn4cnc5[nH]ccc5c34)CC2)cc1 [compound 193, 1-[trans-4-(7H-pyrrolo[3,2-e][1,2,3]triazolo[1,5-c]pyrimidin-1-yl)cyclohexyl]-N-benzylmethanamine]	–	–	–	–	–
0.41	0.052	0.2	0.65	c1cc2c(ncn3nnc(C4CCC4)c23)[nH]1 [compound 67]	–	–	–	–	–
–	–	–	–	COCCN(CCOC)C[C@H]1CC[C@H](c2nnn3cnc4[nH]ccc4c23)CC1 [compound 326, N-{[trans-4-(7H-pyrrolo[3,2-e][1,2,3]triazolo[1,5-c]pyrimidin-1-yl)cyclohexyl]methyl}-2-methoxy-N-(2-methoxyethyl)ethanamine]	> 1	0.048	0.31	> 1	–
–	–	–	–	CCOC(=O)C=C1CCC(c2nnn3cnc4[nH]ccc4c23)CC1 (stereo not drawn) [compound 436, ethyl 2-[4-(7H-pyrrolo[3,2-e][1,2,3]triazolo[1,5-c]pyrimidin-1-yl)cyclohexylidene]acetate]	> 1	0.035	0.17	> 1	–
–	–	–	–	CCN(C)C1CN(C[C@H]2CC[C@H](c3nnn4cnc5[nH]ccc5c34)CC2)C1 [compound 424, 1-{[trans-4-(7H-pyrrolo[3,2-e][1,2,3]triazolo[1,5-c]pyrimidin-1-yl)cyclohexyl]methyl}-N-ethyl-N-methylazetidin-3-amine]	> 1	0.044	0.48	> 1	–
–	–	–	–	c1cc2c(ncn3nnc([C@H]4CC[C@H](CNC5CCCC5)CC4)c23)[nH]1 [compound 284, N-{[trans-4-(7H-pyrrolo[3,2-e][1,2,3]triazolo[1,5-c]pyrimidin-1-yl)cyclohexyl]methyl}cyclopentanamine]	0.32	0.017	0.15	> 1	–
–	–	–	–	CN(CCC#N)c1ccc(CN2CCC(c3nnn4cnc5[nH]ccc5c34)CC2)cc1 [compound 226, 3-[(4-{[4-(7H-pyrrolo[3,2-e][1,2,3]triazolo[1,5-c]pyrimidin-1-yl)piperidin-1-yl]methyl}phenyl)(methyl)amino]propanenitrile]	> 1	0.28	> 1	> 1	–
0.065	0.0025	0.037	0.4	Clc1ccc(CCN[C@H]2CC[C@H](c3nnn4cnc5[nH]ccc5c34)CC2)cc1 [198b, trans-N-(4-chlorophenethyl)-4-(7H-pyrrolo[3,2-e][1,2,3]triazolo[1,5-c]pyrimidin-1-yl)cyclohexanamine]	–	–	–	–	–
–	–	–	–	N#Cc1ccc(CN2CCC(c3nnn4cnc5[nH]ccc5c34)CC2)cc1C#N [compound 242, 4-{[4-(7H-pyrrolo[3,2-e][1,2,3]triazolo[1,5-c]pyrimidin-1-yl)piperidin-1-yl]methyl}phthalonitrile]	> 1	0.0065	0.052	0.96	–
–	–	–	–	CN(C)C1CN(C[C@H]2CC[C@H](c3nnn4cnc5[nH]ccc5c34)CC2)C1 [compound 423, 1-{[trans-4-(7H-pyrrolo[3,2-e][1,2,3]triazolo[1,5-c]pyrimidin-1-yl)cyclohexyl]methyl}-N,N-dimethylazetidin-3-amine]	> 1	0.077	0.72	> 1	–
–	–	–	–	CC(C)(O)C1CCN(C[C@H]2CC[C@H](c3nnn4cnc5[nH]ccc5c34)CC2)CC1 [compound 311, 2-(1-{[trans-4-(7H-pyrrolo[3,2-e][1,2,3]triazolo[1,5-c]pyrimidin-1-yl)cyclohexyl]methyl}piperidin-4-yl)propan-2-ol]	0.94	0.025	0.16	> 1	–
0.31	0.03	0.55	> 1	Fc1ccc(CN[C@H]2CC[C@@H](c3nnn4cnc5[nH]ccc5c34)CC2)cc1 [195a, cis-N-(4-fluorobenzyl)-4-(7H-pyrrolo[3,2-e][1,2,3]triazolo[1,5-c]pyrimidin-1-yl)cyclohexanamine]	–	–	–	–	–
–	–	–	–	c1cc2c(ncn3nnc([C@H]4CC[C@@H](CNC5CC5)CC4)c23)[nH]1 [compound 406, N-{[cis-4-(7H-pyrrolo[3,2-e][1,2,3]triazolo[1,5-c]pyrimidin-1-yl)cyclohexyl]methyl}cyclopropanamine]	0.94	0.083	0.56	> 1	–
–	–	–	–	N#CCC(=O)N(CC#N)C[C@H]1CC[C@H](c2nnn3cnc4[nH]ccc4c23)CC1 [compound 408, N-{[trans-4-(7H-pyrrolo[3,2-e][1,2,3]triazolo[1,5-c]pyrimidin-1-yl)cyclohexyl]methyl}-2-cyano-N-(cyanomethyl)acetamide]	0.31	0.0052	0.013	0.22	–
0.37	0.0028	0.033	0.36	O=C(NCCc1ccc(F)cc1)[C@H]1CC[C@H](c2nnn3cnc4[nH]ccc4c23)CC1 [compound 208, trans-N-(4-fluorophenethyl)-4-(7H-pyrrolo[3,2-e][1,2,3]triazolo[1,5-c]pyrimidin-1-yl)cyclohexanecarboxamide]	–	–	–	–	–
–	–	–	–	O[C@H]1CC[C@H](NC[C@H]2CC[C@H](c3nnn4cnc5[nH]ccc5c34)CC2)CC1 [compound 305, trans-4-({[trans-4-(7H-pyrrolo[3,2-e][1,2,3]triazolo[1,5-c]pyrimidin-1-yl)cyclohexyl]methyl}amino)cyclohexanol]	> 1	0.046	0.29	> 1	–

SMILES	IC50 (Tyk2; Table^a 154) [µM]	IC50 (JAK1; Table^a 154) [µM]	IC50 (JAK2; Table^a 154) [µM]	IC50 (JAK3; ATP 100 μM, Table^a 154) [µM]	IC50 (Tyk2) [µM]	IC50 (JAK1) [µM]	IC50 (JAK2) [µM]	IC50 (JAK3; ATP 100 μM) [µM]	IC50 (JAK3) [µM]
Cc1ccc(CNC[C@H]2CC[C@H](c3nnn4cnc5[nH]ccc5c34)CC2)s1 [compound 106]	0.0036	0.0019	0.041	–	–	–	–	–	0.28
CC(C)(C)OC(=O)NCCN1CCC(c2nnn3cnc4[nH]ccc4c23)CC1 [compound 171, tert-butyl {2-[4-(7H-pyrrolo[3,2-e][1,2,3]triazolo[1,5-c]pyrimidin-1-yl)piperidin-1-yl]ethyl}carbamate]	> 1	0.1	0.94	> 1	–	–	–	–	–
